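Grown in 96-well plates, cells were treated for 48 hours with each compound at five concentrations. Insufficient inhibition: endpoint recorded as highest concentration tested. TGI: concentration producing complete growth inhibition.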
Columns and labels:
Test in all cases: DTP human tumour cell line panel, 48 h
ACHN renal = tested on: ACHN renal
UACC-62 melanoma = tested on: UACC-62 melanoma
NCI-H522 lung = tested on: NCI-H522 lung
COLO 205 colon = tested on: COLO 205 colon
M14 melanoma = tested on: M14 melanoma
UO-31 renal = tested on: UO-31 renal
K-562 leukemia = tested on: K-562 leukemia
HCC-2998 colon = tested on: HCC-2998 colon
CCRF-CEM leukemia = tested on: CCRF-CEM leukemia
HL-60(TB) leukemia = tested on: HL-60(TB) leukemia
HS 578T breast = tested on: HS 578T breast

O=Cc1cc(O)c(O)c(O)c1-c1c(C=O)cc(O)c(O)c1O
TGI (ACHN renal): > 100 µM
TGI (UACC-62 melanoma): > 100 µM
TGI (NCI-H522 lung): > 100 µM
TGI (COLO 205 colon): > 100 µM
TGI (M14 melanoma): > 100 µM
TGI (UO-31 renal): > 100 µM
TGI (K-562 leukemia): > 100 µM
TGI (HCC-2998 colon): > 100 µM
TGI (CCRF-CEM leukemia): > 100 µM
TGI (HL-60(TB) leukemia): > 100 µM

CC(C)(C)[Si](C)(C)OCC1OC(n2ccc(=O)[nH]c2=O)C(O[Si](C)(C)C(C)(C)C)/C1=N/O (configuration not stated)
TGI (ACHN renal): 12.1 µM
TGI (UACC-62 melanoma): 24.8 µM
TGI (COLO 205 colon): 5.69 µM
TGI (M14 melanoma): 12 µM
TGI (UO-31 renal): 14.5 µM
TGI (K-562 leukemia): 15.7 µM
TGI (HCC-2998 colon): 14.8 µM
TGI (CCRF-CEM leukemia): 27.3 µM

C=C1C(=O)O[C@H]2C1C[C@@H](O)[C@@]1(C)OC1CC[C@@]1(C)O[C@H]21 (some centres not stated)
TGI (ACHN renal): 27 µM
TGI (HS 578T breast): 98.8 µM
TGI (UACC-62 melanoma): 31.4 µM
TGI (NCI-H522 lung): 20 µM
TGI (COLO 205 colon): 25.8 µM
TGI (M14 melanoma): 31.3 µM
TGI (UO-31 renal): 32.5 µM
TGI (K-562 leukemia): 32.5 µM
TGI (HCC-2998 colon): 30.7 µM
TGI (CCRF-CEM leukemia): 23.1 µM

Cc1cc2nc3c(C#N)c(-c4ccccc4)/c(=C\Nc4cccc(C(F)(F)F)c4)c(=O)n3c2cc1C
TGI (ACHN renal): > 100 µM
TGI (NCI-H522 lung): 93.7 µM
TGI (COLO 205 colon): > 100 µM
TGI (M14 melanoma): > 100 µM
TGI (UO-31 renal): > 100 µM
TGI (HCC-2998 colon): > 100 µM
TGI (CCRF-CEM leukemia): > 100 µM

Cc1[nH]n(C(=O)c2ccccc2O)c(=O)c1/C=C1\C(=O)C=Cc2ccccc21
TGI (ACHN renal): 12.8 µM
TGI (HS 578T breast): > 100 µM
TGI (UACC-62 melanoma): 2.36 µM
TGI (NCI-H522 lung): 15.1 µM
TGI (COLO 205 colon): 13.1 µM
TGI (M14 melanoma): 4.63 µM
TGI (UO-31 renal): 13.2 µM
TGI (K-562 leukemia): > 44 µM
TGI (HCC-2998 colon): > 71.7 µM
TGI (CCRF-CEM leukemia): > 36.4 µM

CC1(C)COC(c2cccc(C3=NC(C)(C)CO3)c2)=N1
TGI (ACHN renal): > 100 µM
TGI (UACC-62 melanoma): > 100 µM
TGI (COLO 205 colon): > 100 µM
TGI (M14 melanoma): > 100 µM
TGI (UO-31 renal): > 100 µM
TGI (K-562 leukemia): > 100 µM
TGI (HCC-2998 colon): > 100 µM

C=C1C(=O)OC2C(C)C3C=CC(=O)[C@@]3(C)C(OC(=O)/C(C)=C/C)C1[C@@H]2OC(C)=O (some centres not stated)
TGI (ACHN renal): 1.68 µM
TGI (UACC-62 melanoma): 0.81 µM
TGI (NCI-H522 lung): 0.334 µM
TGI (COLO 205 colon): 0.906 µM
TGI (M14 melanoma): 1.96 µM
TGI (UO-31 renal): 2.48 µM
TGI (K-562 leukemia): 16 µM
TGI (HCC-2998 colon): 3.2 µM
TGI (CCRF-CEM leukemia): > 28.7 µM

COc1cc(O)c(C(=O)/C=C/c2ccc(O)cc2)cc1Oc1ccc(C(=O)/C=C/c2ccc(O)cc2)c(O)c1
TGI (ACHN renal): 5.02 µM
TGI (HS 578T breast): 82.8 µM
TGI (UACC-62 melanoma): 4.52 µM
TGI (NCI-H522 lung): 6.22 µM
TGI (COLO 205 colon): 3.58 µM
TGI (M14 melanoma): 12.7 µM
TGI (UO-31 renal): 7.06 µM
TGI (K-562 leukemia): 10.7 µM
TGI (CCRF-CEM leukemia): 33.8 µM
TGI (HL-60(TB) leukemia): > 100 µM

N=C(/C=C/c1ccc(-c2cn3cc(/C=C/C(=N)N4CCOCC4)ccc3n2)cc1)N1CCOCC1
TGI (ACHN renal): > 100 µM
TGI (HS 578T breast): > 100 µM
TGI (UACC-62 melanoma): > 100 µM
TGI (NCI-H522 lung): > 100 µM
TGI (COLO 205 colon): > 100 µM
TGI (M14 melanoma): > 100 µM
TGI (UO-31 renal): > 100 µM
TGI (K-562 leukemia): > 100 µM
TGI (HCC-2998 colon): > 100 µM

Fc1ccc(C(=NCc2ccccc2)N2CCOCC2)cc1
TGI (ACHN renal): > 100 µM
TGI (HS 578T breast): > 100 µM
TGI (UACC-62 melanoma): > 100 µM
TGI (COLO 205 colon): > 100 µM
TGI (M14 melanoma): > 100 µM
TGI (UO-31 renal): > 100 µM
TGI (K-562 leukemia): > 100 µM
TGI (CCRF-CEM leukemia): > 100 µM
TGI (HL-60(TB) leukemia): > 100 µM

S=C1c2cc(Cl)ccc2NC(=NC2CCCC2)C2CSCN12 (configuration not stated)
TGI (ACHN renal): > 100 µM
TGI (HS 578T breast): > 100 µM
TGI (UACC-62 melanoma): > 100 µM
TGI (NCI-H522 lung): > 100 µM
TGI (COLO 205 colon): > 100 µM
TGI (M14 melanoma): > 100 µM
TGI (UO-31 renal): > 100 µM
TGI (K-562 leukemia): > 100 µM
TGI (HCC-2998 colon): > 100 µM
TGI (CCRF-CEM leukemia): > 100 µM

Cc1nc2c(=O)[nH]c(=O)nc-2n(CCO)c1C
TGI (ACHN renal): > 100 µM
TGI (HS 578T breast): > 100 µM
TGI (UACC-62 melanoma): > 100 µM
TGI (NCI-H522 lung): > 100 µM
TGI (COLO 205 colon): > 100 µM
TGI (M14 melanoma): > 100 µM
TGI (UO-31 renal): > 100 µM
TGI (K-562 leukemia): > 100 µM
TGI (HCC-2998 colon): > 100 µM
TGI (CCRF-CEM leukemia): > 100 µM

CCOC(=O)Nc1ccc(S(=O)(=O)Nc2ccc(Br)cc2)cc1
TGI (ACHN renal): 85.2 µM
TGI (HS 578T breast): > 100 µM
TGI (UACC-62 melanoma): > 100 µM
TGI (NCI-H522 lung): > 100 µM
TGI (COLO 205 colon): 30.4 µM
TGI (M14 melanoma): > 100 µM
TGI (UO-31 renal): > 100 µM
TGI (K-562 leukemia): 34.4 µM
TGI (CCRF-CEM leukemia): > 100 µM
TGI (HL-60(TB) leukemia): > 100 µM

OC(Cn1cncn1)(Cn1cncn1)c1ccc(Cl)cc1Cl
TGI (ACHN renal): > 100 µM
TGI (UACC-62 melanoma): > 100 µM
TGI (NCI-H522 lung): > 100 µM
TGI (COLO 205 colon): > 100 µM
TGI (M14 melanoma): > 100 µM
TGI (UO-31 renal): > 100 µM
TGI (K-562 leukemia): > 100 µM
TGI (CCRF-CEM leukemia): > 100 µM
TGI (HL-60(TB) leukemia): > 100 µM

COC(=O)CP1(=O)OC2C(C3CCC2(C)C3(C)C)N1c1cc(C(F)(F)F)cc(C(F)(F)F)c1 (configuration not stated)
TGI (ACHN renal): > 100 µM
TGI (UACC-62 melanoma): > 100 µM
TGI (COLO 205 colon): 49.1 µM
TGI (M14 melanoma): > 100 µM
TGI (UO-31 renal): > 100 µM
TGI (K-562 leukemia): 68.3 µM
TGI (HCC-2998 colon): 55.2 µM

CCOC(=O)/C(O)=C(\C=N\C(=S)Nc1ccc(Cl)c(Cl)c1)C(=O)OCC
TGI (ACHN renal): > 100 µM
TGI (HS 578T breast): > 100 µM
TGI (UACC-62 melanoma): > 100 µM
TGI (COLO 205 colon): > 100 µM
TGI (M14 melanoma): > 100 µM
TGI (UO-31 renal): > 100 µM
TGI (CCRF-CEM leukemia): > 100 µM
TGI (HL-60(TB) leukemia): 59.7 µM

COC(=O)CSc1[nH]c2nc(C)nc(Nc3ccccc3)c2c1C#N
TGI (UACC-62 melanoma): > 10 µM
TGI (COLO 205 colon): > 10 µM
TGI (M14 melanoma): > 10 µM
TGI (K-562 leukemia): > 10 µM
TGI (HCC-2998 colon): > 10 µM
TGI (CCRF-CEM leukemia): > 10 µM
TGI (HL-60(TB) leukemia): > 10 µM

NS(=O)(=O)c1ccc(CNC(=S)NC(=O)Nc2ccc(Cl)c(Cl)c2)cc1
TGI (ACHN renal): 46 µM
TGI (HS 578T breast): 38.1 µM
TGI (UACC-62 melanoma): 29.3 µM
TGI (NCI-H522 lung): 34.2 µM
TGI (COLO 205 colon): 77.4 µM
TGI (M14 melanoma): 35.8 µM
TGI (UO-31 renal): 32.5 µM
TGI (K-562 leukemia): 39.5 µM
TGI (CCRF-CEM leukemia): 43.4 µM

Cc1ccc(S(=O)/C=C(\NC(=O)OCc2ccccc2)C(F)(F)F)cc1 (configuration not stated)
TGI (ACHN renal): 71 µM
TGI (UACC-62 melanoma): > 100 µM
TGI (NCI-H522 lung): > 100 µM
TGI (COLO 205 colon): > 100 µM
TGI (M14 melanoma): > 100 µM
TGI (UO-31 renal): 73.4 µM
TGI (K-562 leukemia): > 100 µM
TGI (HCC-2998 colon): > 100 µM
TGI (CCRF-CEM leukemia): 72.4 µM
TGI (HL-60(TB) leukemia): 42 µM

C(=N\NC1=NCCCN1)/c1ccc(-c2cn3cc(/C=N/NC4=NCCCN4)ccc3n2)cc1
TGI (ACHN renal): > 100 µM
TGI (UACC-62 melanoma): > 100 µM
TGI (NCI-H522 lung): > 100 µM
TGI (COLO 205 colon): > 100 µM
TGI (M14 melanoma): > 100 µM
TGI (UO-31 renal): > 100 µM
TGI (K-562 leukemia): > 84.3 µM
TGI (HCC-2998 colon): > 100 µM
TGI (CCRF-CEM leukemia): > 66.2 µM
TGI (HL-60(TB) leukemia): > 58.1 µM

CC1(C(O)c2ccccc2)CN(C(C)(C)C)C(=O)/C1=C\Sc1ccccc1 (configuration not stated)
TGI (ACHN renal): > 100 µM
TGI (UACC-62 melanoma): > 100 µM
TGI (NCI-H522 lung): 22.9 µM
TGI (COLO 205 colon): 50.7 µM
TGI (M14 melanoma): > 100 µM
TGI (UO-31 renal): > 100 µM
TGI (K-562 leukemia): > 100 µM
TGI (HCC-2998 colon): > 100 µM
TGI (CCRF-CEM leukemia): > 100 µM
TGI (HL-60(TB) leukemia): > 100 µM

O=c1[nH]c2ccc(CC(=S)N3CCN(c4ccccc4)CC3)cc2s1
TGI (ACHN renal): > 100 µM
TGI (HS 578T breast): > 100 µM
TGI (UACC-62 melanoma): > 100 µM
TGI (COLO 205 colon): > 100 µM
TGI (M14 melanoma): > 100 µM
TGI (K-562 leukemia): > 100 µM
TGI (CCRF-CEM leukemia): > 100 µM
TGI (HL-60(TB) leukemia): > 100 µM

Source: PubChem BioAssay (NCI)
